The record followed here is ChEMBL document CHEMBL1681676, “The design and synthesis of novel N-hydroxyformamide inhibitors of ADAM-TS4 for the treatment of osteoarthritis” (Bioorg Med Chem Lett, 2011).

As usually defined, the IC50 is the midpoint of a concentration-inhibition curve.

The target of the first experiment is 72 kDa type IV collagenase (Homo sapiens, UniProt P08253). Kind of experiment: Inhibition of recombinant human MMP2 assessed as substrate cleavage by measuring increase in fluorescence after 16 hrs.
72 kDa type IV collagenase, sequence (P08253 whole entry): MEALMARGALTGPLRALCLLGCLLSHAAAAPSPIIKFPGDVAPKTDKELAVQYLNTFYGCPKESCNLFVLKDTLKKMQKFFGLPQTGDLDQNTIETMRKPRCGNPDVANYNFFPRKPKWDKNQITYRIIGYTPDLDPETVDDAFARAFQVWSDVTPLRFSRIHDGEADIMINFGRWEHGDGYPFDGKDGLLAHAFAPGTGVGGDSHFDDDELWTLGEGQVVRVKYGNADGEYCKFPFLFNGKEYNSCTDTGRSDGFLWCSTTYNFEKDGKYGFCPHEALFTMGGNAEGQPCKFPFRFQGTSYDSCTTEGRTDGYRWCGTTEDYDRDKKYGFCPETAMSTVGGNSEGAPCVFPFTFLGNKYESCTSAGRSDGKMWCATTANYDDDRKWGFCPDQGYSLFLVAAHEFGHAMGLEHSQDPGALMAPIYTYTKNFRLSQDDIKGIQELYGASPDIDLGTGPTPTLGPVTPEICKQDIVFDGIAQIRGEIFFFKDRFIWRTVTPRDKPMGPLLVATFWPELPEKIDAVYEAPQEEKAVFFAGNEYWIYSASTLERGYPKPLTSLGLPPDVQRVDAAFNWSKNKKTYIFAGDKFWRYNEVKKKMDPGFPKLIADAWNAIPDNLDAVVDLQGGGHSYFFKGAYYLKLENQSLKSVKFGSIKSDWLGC
Turning to `C[C@@H](C[C@@](C)(CS(=O)(=O)N1CCC(CCc2ccc(F)cc2Br)CC1)N(O)C=O)c1ncc(F)cn1`, the IC50 is 1700 nM.

For `C[C@@H](C[C@@](C)(CS(=O)(=O)N1CCC(CCc2ccc(C(F)(F)F)cc2C2CC2)CC1)N(O)C=O)c1ncc(F)cn1`, the half-inhibitory concentration (IC50) was above 9100 nM.

For `C[C@@H](C[C@@](C)(CS(=O)(=O)N1CCC(CCc2ncc(C(F)(F)F)cc2Cl)CC1)N(O)C=O)c1ncc(F)cn1`, the IC50 amounted to 2800 nM.

With `Cc1cc(Cl)ccc1CCC1CCN(S(=O)(=O)C[C@](C)(C[C@H](C)c2ncc(F)cn2)N(O)C=O)CC1`, the IC50 was determined as 530 nM.

For the molecule `C[C@@H](C[C@@](C)(CS(=O)(=O)N1CCC(CCc2ccc(S(C)(=O)=O)cc2Cl)CC1)N(O)C=O)c1ncc(F)cn1`, the IC50 came out at 180 nM.

For `C[C@@H](C[C@@](C)(CS(=O)(=O)N1CCC(CCc2ccc(C(F)(F)F)cc2Cl)CC1)N(O)C=O)c1ncc(F)cn1`, the IC50 is 170 nM.

A further experiment concerns the target Matrix metalloproteinase-14 (Homo sapiens, UniProt P50281). Briefly: Inhibition of recombinant human MMP14 assessed as substrate cleavage by measuring increase in fluorescence after 16 hrs.
In the case of `C[C@@H](C[C@@](C)(CS(=O)(=O)N1CCC(CCc2ccc(F)cc2Br)CC1)N(O)C=O)c1ncc(F)cn1`, the IC50 came out at 390 nM.

For `C[C@@H](C[C@@](C)(CS(=O)(=O)N1CCC(CCc2ccc(C(F)(F)F)cc2C2CC2)CC1)N(O)C=O)c1ncc(F)cn1`, the 50% inhibitory concentration (IC50) came to 18000 nM.

With `C[C@@H](C[C@@](C)(CS(=O)(=O)N1CCC(CCc2ncc(C(F)(F)F)cc2Cl)CC1)N(O)C=O)c1ncc(F)cn1`, the IC50 was above 18000 nM.

As to `Cc1cc(Cl)ccc1CCC1CCN(S(=O)(=O)C[C@](C)(C[C@H](C)c2ncc(F)cn2)N(O)C=O)CC1`, the half-maximal inhibitory concentration (IC50) stood at 360 nM.

Regarding `C[C@@H](C[C@@](C)(CS(=O)(=O)N1CCC(CCc2ccc(S(C)(=O)=O)cc2Cl)CC1)N(O)C=O)c1ncc(F)cn1`, the IC50 is above 3600 nM.

For the molecule `C[C@@H](C[C@@](C)(CS(=O)(=O)N1CCC(CCc2ccc(C(F)(F)F)cc2Cl)CC1)N(O)C=O)c1ncc(F)cn1`, the IC50 was 900 nM.

A further experiment deals with T1, A disintegrin and metalloproteinase with thrombospondin motifs 4 (Homo sapiens, UniProt O75173).
T1 sequence (O75173 whole entry): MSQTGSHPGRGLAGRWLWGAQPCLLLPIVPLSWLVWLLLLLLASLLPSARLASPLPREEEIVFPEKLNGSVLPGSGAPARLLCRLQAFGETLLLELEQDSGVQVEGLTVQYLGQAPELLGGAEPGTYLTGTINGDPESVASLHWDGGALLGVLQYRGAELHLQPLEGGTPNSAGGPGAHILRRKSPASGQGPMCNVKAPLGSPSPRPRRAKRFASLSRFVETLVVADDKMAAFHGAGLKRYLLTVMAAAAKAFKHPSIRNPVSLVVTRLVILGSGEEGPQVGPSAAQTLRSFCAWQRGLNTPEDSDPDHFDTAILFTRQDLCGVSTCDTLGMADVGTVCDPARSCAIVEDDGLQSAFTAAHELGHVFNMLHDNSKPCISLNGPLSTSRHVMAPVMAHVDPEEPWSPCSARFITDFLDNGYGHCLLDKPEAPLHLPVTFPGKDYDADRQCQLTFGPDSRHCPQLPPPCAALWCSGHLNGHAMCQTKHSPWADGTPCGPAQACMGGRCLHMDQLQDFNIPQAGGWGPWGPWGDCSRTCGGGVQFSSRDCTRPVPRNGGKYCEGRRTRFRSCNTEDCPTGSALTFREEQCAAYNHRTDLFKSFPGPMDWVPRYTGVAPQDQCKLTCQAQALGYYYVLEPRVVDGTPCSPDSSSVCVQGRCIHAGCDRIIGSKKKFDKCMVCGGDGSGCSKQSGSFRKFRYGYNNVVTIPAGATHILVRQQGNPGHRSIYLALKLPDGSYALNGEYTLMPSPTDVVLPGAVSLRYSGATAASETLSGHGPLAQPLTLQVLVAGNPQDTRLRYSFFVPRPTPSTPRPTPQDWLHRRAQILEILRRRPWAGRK
Kind of experiment: Inhibition of ADAMTS-4 assessed as substrate cleavage by measuring increase in fluorescence after 16 hrs.
For the molecule `C[C@@H](C[C@@](C)(CS(=O)(=O)N1CCC(CCc2ccc(F)cc2Br)CC1)N(O)C=O)c1ncc(F)cn1`, the IC50 was found to be 0.48 nM.

On to `C[C@@H](C[C@@](C)(CS(=O)(=O)N1CCC(CCc2ccc(C(F)(F)F)cc2C2CC2)CC1)N(O)C=O)c1ncc(F)cn1`, for which the 50% inhibitory concentration (IC50) was found to be 0.94 nM.

Consider `C[C@@H](C[C@@](C)(CS(=O)(=O)N1CCC(CCc2ncc(C(F)(F)F)cc2Cl)CC1)N(O)C=O)c1ncc(F)cn1`, for which the concentration for half-maximal inhibition (IC50) was 4.2 nM.

Consider `Cc1cc(Cl)ccc1CCC1CCN(S(=O)(=O)C[C@](C)(C[C@H](C)c2ncc(F)cn2)N(O)C=O)CC1`, for which the 50% inhibitory concentration (IC50) came out at 0.36 nM.

`C[C@@H](C[C@@](C)(CS(=O)(=O)N1CCC(CCc2ccc(S(C)(=O)=O)cc2Cl)CC1)N(O)C=O)c1ncc(F)cn1`: the IC50 stood at 0.57 nM.

Regarding `C[C@@H](C[C@@](C)(CS(=O)(=O)N1CCC(CCc2ccc(C(F)(F)F)cc2Cl)CC1)N(O)C=O)c1ncc(F)cn1`, the half-inhibitory concentration (IC50) came to 0.48 nM.

In the next experiment the target is Collagenase 3 (Homo sapiens, UniProt P45452). Briefly: Inhibition of recombinant human MMP13 assessed as substrate cleavage by measuring increase in fluorescence after 16 hrs.
On to `C[C@@H](C[C@@](C)(CS(=O)(=O)N1CCC(CCc2ccc(F)cc2Br)CC1)N(O)C=O)c1ncc(F)cn1`, for which the 50% inhibitory concentration (IC50) amounted to 2300 nM.

As to `C[C@@H](C[C@@](C)(CS(=O)(=O)N1CCC(CCc2ccc(C(F)(F)F)cc2C2CC2)CC1)N(O)C=O)c1ncc(F)cn1`, the 50% inhibitory concentration (IC50) is 17000 nM.

Consider `C[C@@H](C[C@@](C)(CS(=O)(=O)N1CCC(CCc2ncc(C(F)(F)F)cc2Cl)CC1)N(O)C=O)c1ncc(F)cn1`, for which the 50% inhibitory concentration (IC50) is above 16000 nM.

Consider `Cc1cc(Cl)ccc1CCC1CCN(S(=O)(=O)C[C@](C)(C[C@H](C)c2ncc(F)cn2)N(O)C=O)CC1`, for which the IC50 is 370 nM.

Consider `C[C@@H](C[C@@](C)(CS(=O)(=O)N1CCC(CCc2ccc(S(C)(=O)=O)cc2Cl)CC1)N(O)C=O)c1ncc(F)cn1`, for which the IC50 was determined as 350 nM.

On to `C[C@@H](C[C@@](C)(CS(=O)(=O)N1CCC(CCc2ccc(C(F)(F)F)cc2Cl)CC1)N(O)C=O)c1ncc(F)cn1`, for which the IC50 came to 260 nM.

Another experiment deals with Disintegrin and metalloproteinase domain-containing protein 17 (Homo sapiens, UniProt P78536). Kind of experiment: Inhibition of TACE assessed as substrate cleavage by measuring increase in fluorescence after 16 hrs.
Disintegrin and metalloproteinase domain-containing protein 17, sequence (P78536 whole entry, the tested form may be a part): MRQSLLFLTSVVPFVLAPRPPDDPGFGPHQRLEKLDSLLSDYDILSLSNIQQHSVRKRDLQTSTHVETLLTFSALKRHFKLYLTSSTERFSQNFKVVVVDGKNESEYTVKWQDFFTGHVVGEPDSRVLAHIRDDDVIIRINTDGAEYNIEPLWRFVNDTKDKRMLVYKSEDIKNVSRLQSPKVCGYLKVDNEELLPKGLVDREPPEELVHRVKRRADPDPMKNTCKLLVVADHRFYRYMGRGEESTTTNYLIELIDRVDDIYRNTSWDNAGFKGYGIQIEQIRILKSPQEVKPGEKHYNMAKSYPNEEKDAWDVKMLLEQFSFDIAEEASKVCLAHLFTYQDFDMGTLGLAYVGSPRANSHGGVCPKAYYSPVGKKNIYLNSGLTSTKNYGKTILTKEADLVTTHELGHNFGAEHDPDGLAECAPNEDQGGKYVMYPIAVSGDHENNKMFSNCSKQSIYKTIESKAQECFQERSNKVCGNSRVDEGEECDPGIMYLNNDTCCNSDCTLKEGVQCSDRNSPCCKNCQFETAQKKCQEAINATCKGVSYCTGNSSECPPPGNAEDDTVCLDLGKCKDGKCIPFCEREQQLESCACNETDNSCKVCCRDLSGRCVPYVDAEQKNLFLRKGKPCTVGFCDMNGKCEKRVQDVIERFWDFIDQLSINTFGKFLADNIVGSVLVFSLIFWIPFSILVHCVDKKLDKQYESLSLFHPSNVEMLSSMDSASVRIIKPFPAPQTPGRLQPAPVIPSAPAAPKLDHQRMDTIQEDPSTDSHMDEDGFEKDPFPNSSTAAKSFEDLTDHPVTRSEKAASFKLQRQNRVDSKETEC
As for `C[C@@H](C[C@@](C)(CS(=O)(=O)N1CCC(CCc2ccc(C(F)(F)F)cc2C2CC2)CC1)N(O)C=O)c1ncc(F)cn1`, the IC50 came out at 3200 nM.

`C[C@@H](C[C@@](C)(CS(=O)(=O)N1CCC(CCc2ncc(C(F)(F)F)cc2Cl)CC1)N(O)C=O)c1ncc(F)cn1`: the IC50 came out at 27000 nM.

`C[C@@H](C[C@@](C)(CS(=O)(=O)N1CCC(CCc2ccc(S(C)(=O)=O)cc2Cl)CC1)N(O)C=O)c1ncc(F)cn1`: the IC50 came to 5500 nM.

In a further experiment the target is T2, Interstitial collagenase (Homo sapiens, UniProt P03956).
T2 sequence (P03956 whole entry): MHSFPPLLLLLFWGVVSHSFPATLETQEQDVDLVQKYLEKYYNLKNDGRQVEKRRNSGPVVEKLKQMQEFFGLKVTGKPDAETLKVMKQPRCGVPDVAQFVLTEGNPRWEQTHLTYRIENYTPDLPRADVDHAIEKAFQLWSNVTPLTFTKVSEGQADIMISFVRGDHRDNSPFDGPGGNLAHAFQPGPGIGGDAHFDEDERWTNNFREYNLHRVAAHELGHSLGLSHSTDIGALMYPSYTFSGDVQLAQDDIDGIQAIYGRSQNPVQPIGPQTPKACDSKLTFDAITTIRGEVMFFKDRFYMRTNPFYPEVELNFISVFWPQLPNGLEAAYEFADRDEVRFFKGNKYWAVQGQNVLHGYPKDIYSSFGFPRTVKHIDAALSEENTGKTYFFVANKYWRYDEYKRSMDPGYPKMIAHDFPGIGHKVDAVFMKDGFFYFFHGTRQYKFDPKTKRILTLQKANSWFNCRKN
Kind of experiment: Inhibition of recombinant human MMP1 assessed as substrate cleavage by measuring increase in fluorescence after 16 hrs.
Consider `C[C@@H](C[C@@](C)(CS(=O)(=O)N1CCC(CCc2ccc(F)cc2Br)CC1)N(O)C=O)c1ncc(F)cn1`, for which the 50% inhibitory concentration (IC50) was above 8000 nM.

On to `C[C@@H](C[C@@](C)(CS(=O)(=O)N1CCC(CCc2ccc(C(F)(F)F)cc2C2CC2)CC1)N(O)C=O)c1ncc(F)cn1`, for which the half-maximal inhibitory concentration (IC50) was above 10000 nM.

As for `C[C@@H](C[C@@](C)(CS(=O)(=O)N1CCC(CCc2ncc(C(F)(F)F)cc2Cl)CC1)N(O)C=O)c1ncc(F)cn1`, the IC50 is above 70000 nM.

Regarding `Cc1cc(Cl)ccc1CCC1CCN(S(=O)(=O)C[C@](C)(C[C@H](C)c2ncc(F)cn2)N(O)C=O)CC1`, the IC50 was above 8500 nM.

`C[C@@H](C[C@@](C)(CS(=O)(=O)N1CCC(CCc2ccc(S(C)(=O)=O)cc2Cl)CC1)N(O)C=O)c1ncc(F)cn1`: the IC50 is above 70000 nM.

With `C[C@@H](C[C@@](C)(CS(=O)(=O)N1CCC(CCc2ccc(C(F)(F)F)cc2Cl)CC1)N(O)C=O)c1ncc(F)cn1`, the IC50 was above 100000 nM.
